Where two headings read alike, the source gives them in different places. Some results are limits rather than exact numbers.

The test system of data set [1] is HepG2 cell line. The experiment in a line: In vitro cytotoxic activity, Sulfo-Rhodamine-B (SRB) assay. In kind it is cell-based, human. Particulars: read-out: IC50 (μM) on HepG2 Cell Line.
Data set [2] deals with VEGFR-2 (Homo sapiens, UniProt P35968). The data set can be described thus: Biochemical kinase assay (Kinase-Glo Plus luminescence). In general terms: Kinase-Glo reads ATP consumption through a luciferase reaction.
Chain of VEGFR-2 (P35968 20-1356): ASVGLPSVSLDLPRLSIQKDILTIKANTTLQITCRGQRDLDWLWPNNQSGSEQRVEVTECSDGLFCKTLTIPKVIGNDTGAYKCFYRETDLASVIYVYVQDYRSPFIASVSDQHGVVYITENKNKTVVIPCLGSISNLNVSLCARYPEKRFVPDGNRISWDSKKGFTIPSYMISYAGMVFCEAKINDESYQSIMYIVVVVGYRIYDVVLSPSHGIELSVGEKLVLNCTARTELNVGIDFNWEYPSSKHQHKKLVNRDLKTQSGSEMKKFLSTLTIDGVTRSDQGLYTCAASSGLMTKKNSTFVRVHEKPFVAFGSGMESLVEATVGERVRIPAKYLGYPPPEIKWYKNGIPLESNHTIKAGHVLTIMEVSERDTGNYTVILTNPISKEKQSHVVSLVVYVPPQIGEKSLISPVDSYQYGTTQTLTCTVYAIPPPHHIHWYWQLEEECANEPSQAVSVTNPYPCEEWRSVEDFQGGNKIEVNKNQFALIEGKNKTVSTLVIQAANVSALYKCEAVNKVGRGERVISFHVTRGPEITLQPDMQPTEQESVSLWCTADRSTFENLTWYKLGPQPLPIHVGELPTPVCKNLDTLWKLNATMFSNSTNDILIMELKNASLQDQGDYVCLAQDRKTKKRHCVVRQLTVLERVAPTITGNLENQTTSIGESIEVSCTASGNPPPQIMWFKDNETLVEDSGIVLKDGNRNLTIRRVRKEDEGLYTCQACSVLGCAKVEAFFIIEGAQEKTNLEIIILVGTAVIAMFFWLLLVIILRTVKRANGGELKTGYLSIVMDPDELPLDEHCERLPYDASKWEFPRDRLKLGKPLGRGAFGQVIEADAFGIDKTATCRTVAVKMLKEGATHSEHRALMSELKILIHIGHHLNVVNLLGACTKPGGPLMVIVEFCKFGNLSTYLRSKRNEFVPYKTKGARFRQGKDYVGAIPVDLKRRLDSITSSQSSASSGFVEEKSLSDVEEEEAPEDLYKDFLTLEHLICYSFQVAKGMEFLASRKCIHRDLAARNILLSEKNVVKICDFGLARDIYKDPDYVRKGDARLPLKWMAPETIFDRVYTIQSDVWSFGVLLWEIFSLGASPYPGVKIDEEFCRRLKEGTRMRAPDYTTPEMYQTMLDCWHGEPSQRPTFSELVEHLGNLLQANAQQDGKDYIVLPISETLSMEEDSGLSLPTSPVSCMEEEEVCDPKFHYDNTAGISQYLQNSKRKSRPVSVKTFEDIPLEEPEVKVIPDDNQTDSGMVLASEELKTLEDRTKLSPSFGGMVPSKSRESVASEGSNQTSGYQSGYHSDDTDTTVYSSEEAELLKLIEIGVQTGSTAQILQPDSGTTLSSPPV
Protocol: This assay was carried out using the VEGFR-2 kinase enzyme system or FGFR-1 kinase enzyme system and Kinase-Glo Plus luminescence kinase (Promega) kits according to the manufacturers´ protocols. This assay evaluated the activity of kinase by measuring the amount of ATP remaining in solution after a kinase reaction. The luminescent signal from the assay was related to the quantity of ATP available, which was inversely proportional to the amount of kinase activity. […] Subsequently, serial dilutions were carried out, and 5 µL of the dilution was added to a 50 µL reaction. The enzymatic reactions were performed at 30 °C for 45 minutes. The 50 µL reaction mixture contained 40 mM Tris, pH 7.4, 10 mM MgCl2, 0.1 mg/mL BSA, 1 mM DTT, 0.2 mg/ml Poly (Glu, Tyr) substrate, 10 μM ATP and protein. After the enzymatic reaction, 50 µL of Kinase-Glo Plus Luminescence kinase assay solution was added to each reaction, and the plates were incubated for 15 minutes at room temperature. The luminescence signal was measured using a Tecan–spark multimode microplate reader. The difference between luminescence intensities in the absence of Kinase (Lut) and in the presence of Kinase (Luc) was defined as 100% activity (Lut − Luc). Using a luminescence signal (Lu) in the presence of the compound, % activity was calculated as: % activity = {(Lut − Lu)/(Lut − Luc)}×100%, where Lu = the luminescence intensity in the presence of the compound.
Data set [3] concerns HepG2 cell line. Set-up: method as in PMID 28505536. Particulars: earlier 2-furylbenzimidazole, comparison value; cited from earlier work.
Where [4] appears, read: Homo sapiens, HepG2, 48 h, SRB assay, 48 h, mean of three independent experiments.
Where [5] appears, read: SRB assay, 48 h, mean of three independent experiments.

Broadly, the IC50 is the point on the concentration scale where inhibition reaches its midpoint. On to `CNC(=O)c1cc(Oc2ccc(NC(=O)Nc3ccc(Cl)c(C(F)(F)F)c3)cc2)ccn1` [Sorafenib (I), sorafenib, reference compound], for which the IC50 in data set [1] (Homo sapiens, HepG2, 48 h) came to 11 µM.
The term melting point denotes the temperature, or range, at which the solid turns liquid. Take `CC(C)c1nc2ccccc2n1CC(=O)N/N=C/c1ccc(N(C)C)cc1` [Compound 13e, (E)-N′-(4-(Dimethylamino)benzylidene)-2-(2-isopropyl-1H-benzo[d]imidazol-1-yl)acetohydrazide]: the melting point was in the range of 225 to 227 °C. In data set [1] (setting [4]), the IC50 amounted to 87 µM.
In turn, `C/C(=N\NC(=O)Cn1c(C(C)C)nc2ccccc21)c1ccccc1C` [Compound 14b, (E)-2-(2-Isopropyl-1H-benzo[d]imidazol-1-yl)-N′-(1-(o-tolyl)ethylidene)acetohydrazide] showed a melting point of 238 to 240 °C. Besides, in data set [1] (setting [4]), the half-maximal inhibitory concentration (IC50) is 26.2 µM.
The compound `COc1ccc(/C=N/NC(=O)Cn2c(C(C)C)nc3ccccc32)cc1` [Compound 13d, (E)-2-(2-Isopropyl-1H-benzo[d]imidazol-1-yl)-N′-(4-methoxybenzylidene)acetohydrazide] registered a melting point of 190 to 192 °C. The IC50 in data set [1] (setting [4]) came to 11.9 µM. Moreover, the IC50 in data set [2] was 0.09 ± 0.002 µM.
With `CC(C)c1nc2ccccc2n1CC(=O)c1ccc(C#N)cc1` [Compound 6, 4-(2-(2-Isopropyl-1H-benzo[d]imidazol-1-yl)acetyl)benzonitrile], the melting point fell in the range of 209 to 211 °C. Besides, the IC50 in data set [1] (setting [4]) was 13.5 µM.
`COc1ccc(OC)c(/C=N/NC(=O)Cn2c(C(C)C)nc3ccccc32)c1` [Compound 13f] yielded a melting point of 202 to 204 °C. The IC50 in data set [1] (setting [4]) fell in the range of 11.9 to 15.6 µM. Further, the IC50 in data set [1] (setting [5]) worked out at 16.7 µM. The IC50 in data set [2] is 0.4 ± 0.01 µM.
In turn, `C/C(=N\NC(=O)Cn1c(C(C)C)nc2ccccc21)c1ccc(Br)cc1` [Compound 14c, (E)-N′-(1-(4-Bromophenyl)ethylidene)-2-(2-isopropyl-1H-benzo[d]imidazol-1-yl)acetohydrazide] displayed a melting point of 215 to 217 °C. Also, in data set [1] (setting [4]), the IC50 amounted to 112 µM.
As to `COc1cc(C=O)ccc1OCCOc1ccc(/C=N/NC(=O)Cn2c(C(C)C)nc3ccccc32)cc1OC` [Compound 22a, (E)-N′-(4-(2-(4-Formyl-2-methoxyphenoxy)ethoxy)-3-methoxybenzylidene)-2-(2-isopropyl-1H-benzo[d]imidazol-1-yl)acetohydrazide], the melting point lay within 218 to 220 °C. In addition, the IC50 in data set [1] (setting [4]) is above 100 µM. For the same compound, the IC50 in data set [1] (setting [5]) was 123 µM.
`CC(C)c1nc2ccccc2n1CC(=O)N/N=C/c1ccc(O)cc1` [Compound 13c, (E)-N′-(4-Hydroxybenzylidene)-2-(2-isopropyl-1H-benzo[d]imidazol-1-yl)acetohydrazide] gave a melting point of 296 to 298 °C. For the same compound, the IC50 in data set [1] (setting [4]) is 140 µM.
Taken in the same sequence, the figures for `CC(C)c1nc2ccccc2[nH]1` [Compound 4a, 2-Isopropyl-1H-benzo[d]imidazole] were 233 to 235 °C and above 200 µM.
`C/C(=N\NC(=O)Cn1c(C(C)C)nc2ccccc21)c1ccc(Br)c([N+](=O)[O-])c1` [Compound 14d, (E)-N′-(1-(4-Bromo-3-nitrophenyl)ethylidene)-2-(2-isopropyl-1H-benzo[d]imidazol-1-yl)acetohydrazide] gave a melting point of 231 to 233 °C. The IC50 in data set [1] (setting [4]) was found to be 62 µM.
Take `CCOC(=O)Cn1c(-c2ccc(C)o2)nc2ccccc21` [Compound 8d]: in data set [1] (setting [4]), the half-inhibitory concentration (IC50) is above 150 µM.
For `COC(=O)COc1ccc(/C=N/NC(=O)Cn2c(C(C)C)nc3ccccc32)cc1OC` [Compound 19a, Methyl-(E)-2-(4-((2-(2-(2-isopropyl-1H-benzo[d]imidazol-1-yl)acetyl)hydrazono)methyl)-2-methoxyphenoxy)acetate], the melting point was 175 to 177 °C. In addition, in data set [1] (setting [4]), the IC50 is 109 µM.
In turn, `CCOC(=O)COc1ccc(/C=N/NC(=O)Cn2c(-c3ccc(C)o3)nc3ccccc32)cc1OC` [Compound 19d, Ethyl-(E)-2-(2-methoxy-4-((2-(2-(2-(5-methylfuran-2-yl)-1H-benzo[d]imidazol-1-yl)acetyl)hydrazono)methyl)phenoxy)acetate] showed a melting point of 136 to 138 °C. In addition, the IC50 in data set [1] (setting [4]) amounted to 114 µM.
Taken in the same sequence, the figures for `CC(C)c1nc2ccccc2n1CC(=O)O` [Compound 9a, 2-(2-Isopropyl-1H-benzo[d]imidazol-1-yl)acetic acid] were 238 to 240 °C and 32.5 µM.
Taken in the same sequence, the figures for `COC(=O)Cn1c(C(C)C)nc2ccccc21` [Compound 8a, Methyl 2-(2-isopropyl-1H-benzo[d]imidazol-1-yl)acetate] were 93 to 95 °C and above 200 µM.
Regarding `Cc1ccc(S(=O)(=O)NC(=O)NNC(=O)Cn2c(C(C)C)nc3ccccc32)cc1` [Compound 24a, 2-(2-(2-Isopropyl-1H-benzo[d]imidazol-1-yl)acetyl)-N-tosylhydrazine-1-carboxamide], the IC50 in data set [1] (setting [4]) amounted to 80.7 µM.
On to `COc1cc(C=O)ccc1OCCOc1ccc(/C=N/NC(=O)Cn2c(-c3ccc(C)o3)nc3ccccc32)cc1OC` [Compound 22b, (E)-N′-(4-(2-(4-Formyl-2-methoxyphenoxy)ethoxy)-3-methoxybenzylidene)-2-(2-(5-methylfuran-2-yl)-1H-benzo[d]imidazol-1-yl)acetohydrazide], for which the melting point fell in the range of 203 to 205 °C. The IC50 in data set [1] (setting [4]) was above 100 µM. The IC50 in data set [1] (setting [5]) came to 107 µM.
Compound `CCOC(=O)COc1ccc(/C=N/NC(=O)Cn2c(C(C)C)nc3ccccc32)cc1OC` [Compound 19c, Ethyl-(E)-2-(4-((2-(2-(2-isopropyl-1H-benzo[d]imidazol-1-yl)acetyl)hydrazono)methyl)-2-methoxyphenoxy)acetate] yielded a melting point of 93 to 95 °C. Also, in data set [1] (setting [4]), the IC50 came out at 133 µM.
As for `Cc1ccc(-c2nc3ccccc3n2CC(=O)N/N=C/c2ccccc2Cl)o1` [IX], in data set [3], the IC50 was 22.6 µM.
`COC(=O)COc1ccc(/C=N/NC(=O)Cn2c(-c3ccc(C)o3)nc3ccccc32)cc1OC` [Compound 19b, Methyl-(E)-2-(2-methoxy-4-((2-(2-(2-(5-methylfuran-2-yl)-1H-benzo[d]imidazol-1-yl)acetyl)hydrazono)methyl)phenoxy)acetate] gave a melting point of 150 to 152 °C. Besides, in data set [1] (setting [4]), the IC50 amounted to 71.7 µM.
Taken in the same sequence, the figures for `COc1ccc(NC(=S)NNC(=O)Cn2c(-c3ccc(C)o3)nc3ccccc32)cc1` [Compound 24c, N-(4-Methoxyphenyl)-2-(2-(2-(5-methylfuran-2-yl)-1H-benzo[d]imidazol-1-yl)acetyl)hydrazine-1-carbothioamide] were 189 to 191 °C and 8.73 µM.
Take `Cc1ccc(-c2nc3ccccc3[nH]2)o1` [Compound 4b, 2-(5-Methylfuran-2-yl)-1H-benzo[d]imidazole]: in data set [1] (setting [4]), the IC50 worked out at 103 µM.
On the same count and under the same terms, next, `Cc1ccc(/C=N/NC(=O)Cn2c(C(C)C)nc3ccccc32)o1` [Compound 13h, (E)-2-(2-Isopropyl-1H-benzo[d]imidazol-1-yl)-N′-((5-methylfuran-2-yl)methylene)acetohydrazide]: 59.9 µM.
`CC(C)c1nc2ccccc2n1CC(=O)NN` [Compound 10a, 2-(2-Isopropyl-1H-benzo[d]imidazol-1-yl)acetohydrazide]: the melting point was in the range of 243 to 245 °C. Moreover, the IC50 in data set [1] (setting [4]) is 301 µM.
Taken in the same sequence, the figures for `CCOC(=O)Cn1c(C(C)C)nc2ccccc21` [Compound 8c, Ethyl 2-(2-isopropyl-1H-benzo[d]imidazol-1-yl)acetate] were 103 to 105 °C and above 200 µM.
For `COc1cc(/C=N/NC(=O)Cn2c(C(C)C)nc3ccccc32)ccc1O` [Compound 13g, (E)-N′-(4-Hydroxy-3-methoxybenzylidene)-2-(2-isopropyl-1H-benzo[d]imidazol-1-yl)acetohydrazide] the same measures were 165 to 167 °C and 13.9 µM.
As to `COC(=O)Cn1c(-c2ccc(C)o2)nc2ccccc21` [Compound 8b, Methyl 2-(2-(5-methylfuran-2-yl)-1H-benzo[d]imidazol-1-yl)acetate], in data set [1] (setting [4]), the IC50 was above 150 µM.
`COc1ccc(NC(=S)NNC(=O)Cn2c(C(C)C)nc3ccccc32)cc1` [Compound 24b, 2-(2-(2-Isopropyl-1H-benzo[d]imidazol-1-yl)acetyl)-N-(4-methoxyphenyl)hydrazine-1-carbothioamide] showed a melting point of 232 to 234 °C. For the same compound, the IC50 in data set [1] (setting [4]) amounted to 15.9 µM.
Taken in the same sequence, the figures for `CC(C)c1nc2ccccc2n1CC(=O)N/N=C/c1ccccc1Cl` [Compound 13a, (E)-N′-(2-Chlorobenzylidene)-2-(2-isopropyl-1H-benzo[d]imidazol-1-yl)acetohydrazide] were 211 to 213 °C and 158 µM.
Taken in the same sequence, the figures for `CC(C)c1nc2ccccc2n1CC(=O)N/N=C/c1cccc(O)c1` [Compound 13b, (E)-N′-(3-Hydroxybenzylidene)-2-(2-isopropyl-1H-benzo[d]imidazol-1-yl)acetohydrazide] were 249 to 251 °C and 137 µM.

(Values after publication PMC7071059, “Targeting Receptor Tyrosine Kinase VEGFR-2 in Hepatocellular Cancer: Rational Design, Synthesis and Biological Evaluation of 1,2-Disubstituted Benzimidazoles” (Molecules, 2020).)
